The values below come from patent publication US20020137929A1, “1 - (3-heterocyclylphenyl) isothiourea, -isourea, -guanidine and -amidine herbicidal agents” (Intellectual Property Department, BASF Aktiengesellschaft, priority 1998, published 2002).

Assay [1] has as its system GLXMAW (Soybean, Williams). Description: Preemergence herbicidal evaluation. It is filed as in vivo, Glycine max, (L.) Merr. cv Williams. Particulars: rated 4-5 weeks after treatment. A digest of the protocol:
(§1)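 Scores use a 0–9 visual scale covering stand, vigor, malformation, size and chlorosis relative to controls, rated four to five weeks after treatment. Before emergence, soil-planted seeds were sprayed with compound in aqueous acetone at roughly 0.0156–0.500 kg/ha and held in the greenhouse.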

Assay [2] relates to IPOHE (Morningglory, Ivyleaf). Put plainly: Postemergence herbicidal evaluation. Particulars: postemergence. It is filed as in vivo, Ipomoea hederacea. A digest of the protocol:
(§2)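 Two-week seedlings sprayed postemergence at 40 psi; formulation: 1:1 acetone/water, 0.5% TWEEN 20; application ≈0.0156–0.500 kg/ha. Greenhouse grow-out, then 0–9 visual scoring at 4–5 weeks.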

Another assay relates to GALAP (Galium). Put plainly: Preemergence herbicidal evaluation. It is filed as in vivo, Galium aparine. Particulars: rated 4-5 weeks after treatment. A digest of the protocol:
as §1

The test system of assay [3] is CHEAL (Lambsquarters, Common). Put plainly: Postemergence herbicidal evaluation. It is filed as in vivo, Chenopodium album. Particulars: postemergence. A digest of the protocol: as §2
The subject of the next assay is ECHCG (Barnyardgrass). Description: Preemergence herbicidal evaluation. It is filed as in vivo, Echinochloa crus-galli. Conditions: rated 4-5 weeks after treatment. A digest of the protocol: as §1

Consider `CCOC(=O)[C@H](C)N1C(=O)CSC1=Nc1cc(-n2c(=O)cc(C(F)(F)F)n(C)c2=O)c(F)cc1Cl` [Compound 76, Ethyl 2-{{2-chloro-5-[3,6-dihydro-3-methyl-2,6-dioxo-4-(trifluoromethyl)-1(2H)-pyrimidinyl]-4-fluorophenyl}imino}-α-methyl-4-oxo-3-thiazolidineacetate, L-], for which the “Preemergence herbicidal rating GLXMAW” value in assay [1] (rate 0.0156 kg/ha) was found to be 0.0; in assay [1] (rate 0.0313 kg/ha), 0.0; in assay [1] (rate 0.0625 kg/ha), 3.0; in assay [1] (rate 0.1250 kg/ha), 6.0; in assay [1] (rate 0.2500 kg/ha) it was 9.0. Also, the IPOHE herbicidal rating in assay [2] (rate 0.0158 kg/ha), in assay [2] (rate 0.0315 kg/ha) and in assay [2] (rate 0.0630 kg/ha) was 9.0 throughout. Further, the “Preemergence herbicidal rating GALAP” value amounted to 0.0 in the assay on GALAP (Galium) (rate 0.0156 kg/ha); 0.0 in the assay with GALAP (Galium) (rate 0.0313 kg/ha); 0.0 in the assay on GALAP (Galium) (rate 0.0625 kg/ha); 1.0 with GALAP (Galium) (rate 0.1250 kg/ha); 9.0 with GALAP (Galium) (rate 0.2500 kg/ha). For the same compound, the CHEAL herbicidal rating in assay [3] (rate 0.0158 kg/ha) is on record as 3.0; in assay [3] (rate 0.0315 kg/ha), 7.0; in assay [3] (rate 0.0630 kg/ha), 7.0. Besides, the “Preemergence herbicidal rating ECHCG” value turned out to be 0.0 in the assay with ECHCG (Barnyardgrass) (rate 0.0156 kg/ha); 0.0 in the assay on ECHCG (Barnyardgrass) (rate 0.0313 kg/ha); 1.0 in the assay on ECHCG (Barnyardgrass) (rate 0.0625 kg/ha); 7.0 in the assay with ECHCG (Barnyardgrass) (rate 0.1250 kg/ha); 9.0 with ECHCG (Barnyardgrass) (rate 0.2500 kg/ha).
As to `COC(=O)[C@H](Cc1ccc([N+](=O)[O-])cc1)N1C(=O)CSC1=Nc1cc(-n2c(=O)cc(C(F)(F)F)n(C)c2=O)c(F)cc1Cl` [Compound 78, Methyl 2-{{2-chloro-5-[3,6-dihydro-3-methyl-2,6-dioxo-4-(trifluoromethyl)-1(2H)-pyrimidinyl]-4-fluorophenyl}imino}-4-oxo-α-(p-nitrobenzyl)-3-thiazolidineacetate, L-], the “Preemergence herbicidal rating GLXMAW” value in assay [1] (rate 0.0156 kg/ha) turned out to be 1.0; in assay [1] (rate 0.0313 kg/ha), 0.0; in assay [1] (rate 0.0625 kg/ha), 0.0; in assay [1] (rate 0.1250 kg/ha), 0.0; in assay [1] (rate 0.2500 kg/ha), 1.0. Moreover, the IPOHE herbicidal rating in assay [2] (rate 0.0158 kg/ha), in assay [2] (rate 0.0315 kg/ha) and in assay [2] (rate 0.0630 kg/ha) was 9.0 in each case. For the same compound, the “Preemergence herbicidal rating GALAP” value in the assay with GALAP (Galium) (rate 0.0156 kg/ha) stood at 0.0; in the assay with GALAP (Galium) (rate 0.0313 kg/ha), 0.0; in the assay with GALAP (Galium) (rate 0.0625 kg/ha), 0.0; in the assay on GALAP (Galium) (rate 0.1250 kg/ha), 3.0; with GALAP (Galium) (rate 0.2500 kg/ha), 2.0. Besides, the CHEAL herbicidal rating in assay [3] (rate 0.0158 kg/ha), in assay [3] (rate 0.0315 kg/ha) and in assay [3] (rate 0.0630 kg/ha) was 9.0 throughout. Moreover, the “Preemergence herbicidal rating ECHCG” value came to 0.0 with ECHCG (Barnyardgrass) (rate 0.0156 kg/ha); 0.0 in the assay with ECHCG (Barnyardgrass) (rate 0.0313 kg/ha); 0.0 with ECHCG (Barnyardgrass) (rate 0.0625 kg/ha); 0.0 with ECHCG (Barnyardgrass) (rate 0.1250 kg/ha); 1.0 in the assay with ECHCG (Barnyardgrass) (rate 0.2500 kg/ha).
